Where two headings read alike, the source gives them in different places.
How the values were obtained:
Format in all cases: binding
[1] = molecular target: ABL1(H396P)-phosphorylated (Homo sapiens, UniProt P00519, H396P); assay: biochemical; settings: read-out: Percent Control
KIT(V559D,T670I) = KIT(V559D,T670I) (Homo sapiens, UniProt P10721, T670I/V559D); assay: biochemical; settings: compound concentration 100 nM; Entrez KIT; read-out: Percent Control
[2] = molecular target: ABL1(H396P)-nonphosphorylated (Homo sapiens, UniProt P00519, H396P); assay: biochemical; settings: read-out: Percent Control
EGFR(G719S) = EGFR(G719S) (Homo sapiens, UniProt P00533, G719S); assay: biochemical; settings: 1000 nM, read-out: Percent Control
PIK3CA(E545A) = PIK3CA(E545A) (Homo sapiens, UniProt P42336, E545A); assay: biochemical; settings: compound concentration 100 nM; Entrez PIK3CA; read-out: Percent Control
[3] = molecular target: 468 kinases including some pathogenic mutants (Homo sapiens, UniProt P16234); assay: biochemical; settings: PDGFRA (Entrez PDGFRA), 100 nM; read-out: Percent Control
[4] = molecular target: 468 kinases including some pathogenic mutants (Homo sapiens, UniProt Q13470); assay: biochemical; settings: TNK1 (Entrez TNK1), 100 nM; read-out: Percent Control
[5] = molecular target: 468 kinases including some pathogenic mutants (Homo sapiens, UniProt Q9Y5S2); assay: biochemical; settings: MRCKB (Entrez CDC42BPB), 1000 nM; read-out: Percent Control
[6] = molecular target: 468 kinases including some pathogenic mutants (Homo sapiens, UniProt Q9BZL6); assay: biochemical; settings: PRKD2 (Entrez PRKD2), 100 nM; read-out: Percent Control
[7] = molecular target: 468 kinases including some pathogenic mutants (Homo sapiens, UniProt P10721, T670I/V559D); assay: biochemical; settings: read-out: Percent Control
WNK2 = WNK2 (Homo sapiens, UniProt Q9Y3S1); assay: scanMAX KINOMEscan (Eurofins)
EGFR(S752-I759del) = EGFR(S752-I759del) (Homo sapiens, UniProt P00533, DEL752-759); assay: biochemical; settings: read-out: Percent Control
STK10A = STK10A (Homo sapiens, UniProt O94804); assay: DSF selectivity screening; settings: 10 μM compound
Method in brief: (§1)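 Protein melting monitored by SYPRO Orange fluorescence at 465 nm excitation, 590 nm emission, using 2 μM kinase domain with compound at 10 μM. Buffer: 20 mM HEPES pH 7.5, 500 mM NaCl; heating step 3 °C/min. Tm defined as transition inflection point via Boltzmann equation.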

MAPKAPK2A = MAPKAPK2A (Homo sapiens, UniProt P49137); assay: DSF selectivity screening; settings: 10 μM compound
Method in brief: as §1

EPHA2A = EPHA2A (Homo sapiens, UniProt P29317); assay: DSF selectivity screening; settings: 10 μM compound
Method in brief: as §1

CAMK2BA = CAMK2BA (Homo sapiens, UniProt Q13554); assay: DSF selectivity screening; settings: 10 μM compound
Method in brief: as §1

STK38LA = STK38LA (Homo sapiens, UniProt Q9Y2H1); assay: DSF selectivity screening; settings: 10 μM compound
Method in brief: as §1

DCAMKL1A = DCAMKL1A (Homo sapiens, UniProt O15075); assay: DSF selectivity screening; settings: 10 μM compound
Method in brief: as §1

STK17AA = STK17AA (Homo sapiens, UniProt Q9UEE5); assay: DSF selectivity screening; settings: 10 μM compound
Method in brief: as §1

PHKG2A = PHKG2A (Homo sapiens, UniProt P15735); assay: DSF selectivity screening; settings: 10 μM compound
Method in brief: as §1

MAPK10A = MAPK10A (Homo sapiens, UniProt P53779); assay: DSF selectivity screening; settings: 10 μM compound
Method in brief: as §1

TOPKA = TOPKA (Homo sapiens, UniProt Q96KB5); assay: DSF selectivity screening; settings: 10 μM compound
Method in brief: as §1

MAP3K5A = MAP3K5A (Homo sapiens, UniProt Q99683); assay: DSF selectivity screening; settings: 10 μM compound
Method in brief: as §1

RPS6KA5A = assay: DSF selectivity screening; settings: 10 μM compound
Method in brief: as §1

EPHA4A = EPHA4A (Homo sapiens, UniProt P54764); assay: DSF selectivity screening; settings: 10 μM compound
Method in brief: as §1

CHEK2A = CHEK2A (Homo sapiens, UniProt O96017); assay: DSF selectivity screening; settings: 10 μM compound
Method in brief: as §1

ULK1A = ULK1A (Homo sapiens, UniProt O75385); assay: DSF selectivity screening; settings: 10 μM compound
Method in brief: as §1

CAMK1GA = CAMK1GA (Homo sapiens, UniProt Q96NX5); assay: DSF selectivity screening; settings: 10 μM compound
Method in brief: as §1

EPHB3A = EPHB3A (Homo sapiens, UniProt P54753); assay: DSF selectivity screening; settings: 10 μM compound
Method in brief: as §1

WNK1A = WNK1A (Homo sapiens, UniProt Q9H4A3); assay: DSF selectivity screening; settings: 10 μM compound
Method in brief: as §1

MARK4A = MARK4A (Homo sapiens, UniProt Q96L34); assay: DSF selectivity screening; settings: 10 μM compound
Method in brief: as §1

MAPK14A = MAPK14A (Homo sapiens, UniProt Q16539); assay: DSF selectivity screening; settings: 10 μM compound
Method in brief: as §1

ABL1A = ABL1A (Homo sapiens, UniProt P00519); assay: DSF selectivity screening; settings: 10 μM compound
Method in brief: as §1

PIK3CA(E542K) = PIK3CA(E542K) (Homo sapiens, UniProt P42336, E542K); assay: biochemical; settings: read-out: Percent Control

Chain of WNK2 (Q9Y3S1 whole entry): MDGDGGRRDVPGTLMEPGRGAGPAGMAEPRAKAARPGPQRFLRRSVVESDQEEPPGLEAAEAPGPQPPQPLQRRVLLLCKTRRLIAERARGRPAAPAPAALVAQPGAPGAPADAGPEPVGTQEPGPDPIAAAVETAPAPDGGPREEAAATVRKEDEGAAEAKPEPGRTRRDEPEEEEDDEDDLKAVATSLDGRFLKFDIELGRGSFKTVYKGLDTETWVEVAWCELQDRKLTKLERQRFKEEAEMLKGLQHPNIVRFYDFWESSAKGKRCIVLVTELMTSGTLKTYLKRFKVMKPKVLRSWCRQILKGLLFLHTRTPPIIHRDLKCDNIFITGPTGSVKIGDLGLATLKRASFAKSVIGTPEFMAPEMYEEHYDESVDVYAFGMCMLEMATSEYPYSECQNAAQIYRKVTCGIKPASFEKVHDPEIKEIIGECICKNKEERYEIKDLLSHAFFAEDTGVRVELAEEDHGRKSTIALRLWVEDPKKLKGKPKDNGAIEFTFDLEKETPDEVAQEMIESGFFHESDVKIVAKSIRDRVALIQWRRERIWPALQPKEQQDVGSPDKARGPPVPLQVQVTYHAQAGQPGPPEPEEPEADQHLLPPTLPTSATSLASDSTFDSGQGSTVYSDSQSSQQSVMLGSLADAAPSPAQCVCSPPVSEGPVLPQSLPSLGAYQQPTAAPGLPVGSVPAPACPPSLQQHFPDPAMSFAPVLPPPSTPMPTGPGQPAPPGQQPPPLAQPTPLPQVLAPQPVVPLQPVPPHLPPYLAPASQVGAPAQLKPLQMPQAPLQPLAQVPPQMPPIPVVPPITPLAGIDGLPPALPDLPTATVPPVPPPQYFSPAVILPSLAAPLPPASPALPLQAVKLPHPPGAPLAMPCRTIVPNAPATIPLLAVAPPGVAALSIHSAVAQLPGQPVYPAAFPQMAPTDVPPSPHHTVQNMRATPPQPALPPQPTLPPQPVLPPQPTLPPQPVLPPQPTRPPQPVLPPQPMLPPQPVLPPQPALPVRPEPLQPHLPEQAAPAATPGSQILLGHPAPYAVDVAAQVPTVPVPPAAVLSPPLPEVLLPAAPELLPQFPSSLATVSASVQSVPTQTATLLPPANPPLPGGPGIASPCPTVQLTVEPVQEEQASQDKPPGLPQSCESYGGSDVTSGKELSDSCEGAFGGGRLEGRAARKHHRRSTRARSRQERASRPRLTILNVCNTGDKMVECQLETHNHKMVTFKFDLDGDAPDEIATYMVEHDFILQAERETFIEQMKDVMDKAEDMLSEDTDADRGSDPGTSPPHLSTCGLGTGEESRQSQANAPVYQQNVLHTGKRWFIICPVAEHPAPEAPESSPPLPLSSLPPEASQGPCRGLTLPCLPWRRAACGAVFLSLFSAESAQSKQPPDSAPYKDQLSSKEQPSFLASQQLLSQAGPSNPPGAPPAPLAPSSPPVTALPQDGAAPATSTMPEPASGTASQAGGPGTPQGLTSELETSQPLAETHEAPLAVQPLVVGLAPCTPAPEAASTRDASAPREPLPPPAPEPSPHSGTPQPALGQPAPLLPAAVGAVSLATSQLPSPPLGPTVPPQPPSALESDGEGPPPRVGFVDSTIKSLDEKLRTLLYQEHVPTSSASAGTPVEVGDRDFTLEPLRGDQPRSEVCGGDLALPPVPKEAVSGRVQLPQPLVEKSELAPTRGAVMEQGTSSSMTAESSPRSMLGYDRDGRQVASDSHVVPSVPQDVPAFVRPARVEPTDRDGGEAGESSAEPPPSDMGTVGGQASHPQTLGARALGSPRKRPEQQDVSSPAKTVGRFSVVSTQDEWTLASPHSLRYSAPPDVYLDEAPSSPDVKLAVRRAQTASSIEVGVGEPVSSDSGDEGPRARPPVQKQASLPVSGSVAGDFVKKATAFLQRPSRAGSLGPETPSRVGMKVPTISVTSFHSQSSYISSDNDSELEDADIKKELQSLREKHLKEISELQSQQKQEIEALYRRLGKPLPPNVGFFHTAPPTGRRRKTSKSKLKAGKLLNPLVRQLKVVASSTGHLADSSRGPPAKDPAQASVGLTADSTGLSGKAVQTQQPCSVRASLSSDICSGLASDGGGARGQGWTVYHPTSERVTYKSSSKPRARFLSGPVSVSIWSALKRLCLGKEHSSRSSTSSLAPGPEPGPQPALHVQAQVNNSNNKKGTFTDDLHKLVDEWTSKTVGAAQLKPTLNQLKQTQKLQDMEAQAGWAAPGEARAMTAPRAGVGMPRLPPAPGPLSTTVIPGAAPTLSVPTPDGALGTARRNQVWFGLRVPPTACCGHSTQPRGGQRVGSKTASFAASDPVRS
Chain of 468 kinases including some pathogenic mutants (Homo sapiens, UniProt Q9Y5S2) (Q9Y5S2 whole entry, change not shown): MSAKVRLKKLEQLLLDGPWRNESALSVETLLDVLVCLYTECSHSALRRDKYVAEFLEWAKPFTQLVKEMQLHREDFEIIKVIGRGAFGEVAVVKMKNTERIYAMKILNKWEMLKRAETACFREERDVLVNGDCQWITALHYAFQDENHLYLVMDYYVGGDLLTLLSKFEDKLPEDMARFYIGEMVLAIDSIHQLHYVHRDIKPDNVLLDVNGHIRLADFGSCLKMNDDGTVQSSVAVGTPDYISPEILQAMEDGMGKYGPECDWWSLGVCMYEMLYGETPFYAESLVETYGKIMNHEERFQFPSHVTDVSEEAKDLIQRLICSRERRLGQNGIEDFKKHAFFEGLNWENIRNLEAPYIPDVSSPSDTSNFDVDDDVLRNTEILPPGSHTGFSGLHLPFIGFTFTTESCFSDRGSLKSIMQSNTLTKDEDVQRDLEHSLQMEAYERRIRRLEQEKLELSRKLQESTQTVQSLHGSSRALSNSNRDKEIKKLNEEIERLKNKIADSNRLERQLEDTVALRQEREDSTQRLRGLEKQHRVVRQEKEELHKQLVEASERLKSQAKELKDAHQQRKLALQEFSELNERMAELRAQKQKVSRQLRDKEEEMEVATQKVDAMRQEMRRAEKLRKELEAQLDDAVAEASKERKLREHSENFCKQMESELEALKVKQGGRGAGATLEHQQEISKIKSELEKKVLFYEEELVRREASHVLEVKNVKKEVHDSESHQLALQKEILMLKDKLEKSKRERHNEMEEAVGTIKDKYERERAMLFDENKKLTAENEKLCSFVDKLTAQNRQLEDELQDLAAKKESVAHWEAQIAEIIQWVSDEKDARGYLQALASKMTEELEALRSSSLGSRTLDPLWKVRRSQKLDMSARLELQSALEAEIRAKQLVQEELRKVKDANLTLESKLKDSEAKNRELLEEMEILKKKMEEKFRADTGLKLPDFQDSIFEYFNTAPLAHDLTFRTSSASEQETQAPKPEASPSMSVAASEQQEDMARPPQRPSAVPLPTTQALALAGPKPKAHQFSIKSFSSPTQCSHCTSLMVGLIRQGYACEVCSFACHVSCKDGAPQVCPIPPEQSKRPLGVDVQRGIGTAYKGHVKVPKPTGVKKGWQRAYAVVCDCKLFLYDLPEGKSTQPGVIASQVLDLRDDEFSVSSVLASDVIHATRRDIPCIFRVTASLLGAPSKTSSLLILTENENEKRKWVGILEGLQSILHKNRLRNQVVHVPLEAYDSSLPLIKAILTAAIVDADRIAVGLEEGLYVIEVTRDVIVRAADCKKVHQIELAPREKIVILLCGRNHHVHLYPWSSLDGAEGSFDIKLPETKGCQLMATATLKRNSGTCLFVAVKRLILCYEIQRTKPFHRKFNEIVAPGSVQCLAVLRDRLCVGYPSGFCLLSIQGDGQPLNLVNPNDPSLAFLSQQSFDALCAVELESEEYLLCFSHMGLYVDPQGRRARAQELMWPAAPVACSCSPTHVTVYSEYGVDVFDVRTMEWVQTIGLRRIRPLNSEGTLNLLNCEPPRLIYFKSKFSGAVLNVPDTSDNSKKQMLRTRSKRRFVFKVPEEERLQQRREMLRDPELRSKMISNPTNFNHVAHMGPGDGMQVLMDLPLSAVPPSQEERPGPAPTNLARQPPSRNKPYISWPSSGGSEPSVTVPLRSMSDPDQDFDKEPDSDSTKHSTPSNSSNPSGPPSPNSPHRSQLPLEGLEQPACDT
Chain of MAPK14A (Q16539 whole entry): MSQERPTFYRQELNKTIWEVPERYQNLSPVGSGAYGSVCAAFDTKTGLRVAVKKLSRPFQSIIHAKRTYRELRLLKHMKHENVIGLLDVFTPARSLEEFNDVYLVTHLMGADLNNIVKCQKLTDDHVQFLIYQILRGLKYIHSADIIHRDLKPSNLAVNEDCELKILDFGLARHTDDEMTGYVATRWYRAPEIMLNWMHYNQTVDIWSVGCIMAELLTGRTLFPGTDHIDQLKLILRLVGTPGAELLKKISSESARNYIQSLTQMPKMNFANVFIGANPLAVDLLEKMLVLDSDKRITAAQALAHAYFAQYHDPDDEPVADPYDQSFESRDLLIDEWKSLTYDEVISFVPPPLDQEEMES
Chain of MAP3K5A (Q99683 659-951): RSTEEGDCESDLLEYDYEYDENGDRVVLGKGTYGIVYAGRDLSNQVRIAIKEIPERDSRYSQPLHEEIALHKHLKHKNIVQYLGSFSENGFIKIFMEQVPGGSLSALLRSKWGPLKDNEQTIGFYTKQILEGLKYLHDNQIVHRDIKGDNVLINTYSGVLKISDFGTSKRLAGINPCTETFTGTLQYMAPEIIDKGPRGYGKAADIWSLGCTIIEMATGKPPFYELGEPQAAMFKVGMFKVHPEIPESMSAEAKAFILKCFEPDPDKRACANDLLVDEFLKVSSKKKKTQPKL
Chain of MARK4A (Q96L34 59-310): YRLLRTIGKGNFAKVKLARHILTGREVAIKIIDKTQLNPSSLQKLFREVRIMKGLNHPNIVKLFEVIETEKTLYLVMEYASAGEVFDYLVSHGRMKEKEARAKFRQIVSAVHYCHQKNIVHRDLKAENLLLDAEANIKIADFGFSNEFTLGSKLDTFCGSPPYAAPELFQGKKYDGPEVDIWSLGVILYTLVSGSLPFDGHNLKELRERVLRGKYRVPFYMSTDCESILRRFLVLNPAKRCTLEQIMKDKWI

Question: Which results are given for CN1C(=O)[C@@H](N2CCc3c(nn(Cc4ccccc4)c3C(N)=O)C2=O)COc2cc(Cl)ccc21 [Compound 10, (S)-2-benzyl-6-(8-chloro-5-methyl-4-oxo-2,3,4,5-tetrahydrobenzo[b][1,4]oxazepin-3-yl)-7-oxo-4,5,6,7-tetrahydro-2H-pyrazolo[3,4-c]pyridine-3-carboxamide]?
Answer: remaining activity at 1 µM [1]: 88%; remaining activity at 0.1 µM (KIT(V559D,T670I)): 92%; remaining activity at 1 µM [2]: 66%; remaining activity at 1 µM (EGFR(G719S)): 92%; remaining activity at 0.1 µM (PIK3CA(E545A)): 92%; remaining activity at 0.1 µM [3]: 89%; remaining activity at 0.1 µM [4]: 78%; remaining activity at 1 µM [5]: 100%; remaining activity at 0.1 µM [6]: 84%; remaining activity at 1 µM [7]: 100%; remaining binding at 0.1 µM (WNK2; WNK2 (Entrez WNK2), 100 nM, read-out: Percent Control): 100%; remaining binding at 1 µM (WNK2; WNK2, 1 μM, read-out: POC (Top Hits @ 1 μM)): 49%; remaining binding at 1 µM (WNK2; WNK2, 1000 nM, read-out: Percent Control): 49%; remaining activity at 1 µM (EGFR(S752-I759del)): 89%; ΔTm at 10 µM (STK10A): 0.4 °C; ΔTm at 10 µM (MAPKAPK2A): 0 °C; ΔTm at 10 µM (EPHA2A): 0 °C; ΔTm at 10 µM (CAMK2BA): 0.1 °C; ΔTm at 10 µM (STK38LA): 0 °C; ΔTm at 10 µM (DCAMKL1A): 0 °C; ΔTm at 10 µM (STK17AA): 0 °C; ΔTm at 10 µM (PHKG2A): 0 °C; ΔTm at 10 µM (MAPK10A): 0 °C; ΔTm at 10 µM (TOPKA): -0.1 °C; ΔTm at 10 µM (MAP3K5A): 0 °C; ΔTM (RPS6KA5A): -0.1 K; ΔTm at 10 µM (EPHA4A): 0.2 °C; ΔTm at 10 µM (CHEK2A): -0.1 °C; ΔTm at 10 µM (ULK1A): 0.1 °C; ΔTm at 10 µM (CAMK1GA): -0.2 °C; ΔTm at 10 µM (EPHB3A): 0.2 °C; ΔTm at 10 µM (WNK1A): 0.4 °C; ΔTm at 10 µM (MARK4A): -1.9 °C; ΔTm at 10 µM (MAPK14A): 0.1 °C; ΔTm at 10 µM (ABL1A): -0.1 °C; remaining activity at 1 µM (PIK3CA(E542K)): 94%

— publication PMC12090182, “Repurposing of the RIPK1-Selective Benzo[1,4]oxazepin-4-one Scaffold for the Development of a Type III LIMK1/2 Inhibitor” (ACS Chemical Biology, 2025)
